Source: ChEMBL document CHEMBL1201862, “PubChem BioAssay data set” (2004)
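Grown in 96-well plates, cells were treated for 48 hours with each compound at five concentrations. Insufficient inhibition: endpoint recorded as highest concentration tested. At the GI50, growth is halved.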 Active and inactive are the calls of the source. No stated cut-off is given here; in the data, active = GI50 up to about 1.1 µM and inactive = higher.

Key:
Assay in all cases: inhibition of tumour cell growth, NCI panel, 48 h
[1] = system: OVCAR-8
[2] = system: CCRF-CEM
[3] = system: 786-0
[4] = system: HCT-15
[5] = system: A549
[6] = system: ACHN
[7] = system: DMS-114
[8] = system: OVCAR-3
[9] = system: SK-MEL-28
[10] = system: OVCAR-5
[11] = system: RXF 393
[12] = system: XF498
[13] = system: KM-20L2
[14] = system: SN12C
[15] = system: HCT-116
[16] = system: HCC 2998
[17] = system: DMS-273
[18] = system: Malme-3M
[19] = system: LOX IMVI
[20] = system: SF-295
[21] = system: NCI-H460
[22] = system: TK-10
[23] = system: SNB-19
[24] = system: IGROV-1
[25] = system: HL-60
[26] = system: UO-31
[27] = system: K562
[28] = system: SR
[29] = system: MOLT-4
[30] = system: SW-620
[31] = system: LXFL 529
[32] = system: NCI-H522
[33] = system: KM12
[34] = system: SF-539
[35] = system: SF-268
[36] = system: UACC-257
[37] = system: RPMI-8226
[38] = system: HOP-18
[39] = system: HOP-92
[40] = system: M14
[41] = system: UACC-62
[42] = system: SK-MEL-5
[43] = system: U-251
[44] = system: HT-29
[45] = system: HOP-62
[46] = system: EKVX
[47] = system: SK-MEL-2
[48] = system: NCI-H23
[49] = system: SNB-78
[50] = system: SNB-75
[51] = system: NCI-H226
[52] = system: M19-MEL
[53] = system: COLO 205
[54] = system: SK-OV-3
[55] = system: OVCAR-4
[56] = system: A498
[57] = system: DLD-1
[58] = system: CAKI-1

Measured: GI50

C1OC1CN1CCN(CC2CO2)CC1 (stereo not drawn)
inactive: [1] > 75.7 µM | [2] 2.49 µM | [3] 35.3 µM | [5] 17.5 µM | [6] 12.4 µM | [7] 12.8 µM | [8] > 100 µM | [9] > 100 µM | [10] > 100 µM | [11] > 100 µM | [12] > 100 µM | [13] > 100 µM | [14] 32.1 µM | [15] 72.8 µM | [16] > 100 µM | [17] 16.1 µM | [18] > 100 µM | [19] 44.1 µM | [20] 42 µM | [21] 6.53 µM | [22] > 100 µM | [23] > 100 µM | [24] > 100 µM | [25] 4.85 µM | [26] 97.5 µM | [27] 52.5 µM | [28] 2.42 µM | [29] 3.28 µM | [30] > 100 µM | [31] > 100 µM | [32] > 100 µM | [33] > 100 µM | [34] 37.4 µM | [35] 22.8 µM | [36] > 100 µM | [37] > 66.8 µM | [38] 66.7 µM | [39] 80.9 µM | [40] 54.6 µM | [41] 8.87 µM | [42] > 100 µM | [43] 45.4 µM | [44] > 100 µM | [45] 24.2 µM | [46] > 100 µM | [47] > 100 µM | [48] 22.1 µM | [49] > 100 µM | [50] 38.2 µM | [51] > 100 µM | [52] > 100 µM | [53] > 100 µM | [54] > 96.8 µM | [55] > 100 µM | [56] > 100 µM | [57] > 100 µM | [58] 26.7 µM
> 100 µM: [4]

C/C(=N/NC(N)=S)C(CN(C)C)C(C1=C(O)c2ccccc2OC1)c1ccccc1 (stereo not drawn)
> 100 µM: [4]
inactive: [1] > 100 µM | [2] > 100 µM | [3] > 100 µM | [5] > 100 µM | [6] > 100 µM | [7] > 100 µM | [8] > 100 µM | [9] > 100 µM | [10] > 100 µM | [11] > 100 µM | [12] > 100 µM | [13] > 100 µM | [14] > 100 µM | [15] > 100 µM | [16] > 100 µM | [17] > 100 µM | [18] > 100 µM | [19] > 100 µM | [20] > 100 µM | [21] > 100 µM | [22] > 100 µM | [23] > 100 µM | [24] > 100 µM | [25] > 100 µM | [26] > 100 µM | [27] > 100 µM | [28] > 100 µM | [29] > 100 µM | [30] > 100 µM | [31] > 100 µM | [32] > 100 µM | [33] > 100 µM | [34] > 100 µM | [35] > 100 µM | [36] > 100 µM | [37] > 100 µM | [38] > 100 µM | [40] > 100 µM | [41] > 100 µM | [42] > 100 µM | [43] > 100 µM | [44] > 100 µM | [45] > 100 µM | [46] > 100 µM | [47] > 100 µM | [48] > 100 µM | [49] > 100 µM | [50] > 100 µM | [51] > 100 µM | [52] > 100 µM | [53] > 100 µM | [54] > 100 µM | [55] > 100 µM | [56] > 100 µM | [57] > 100 µM | [58] > 100 µM

O=C(NC(=S)Nc1ccccc1)c1ccc([N+](=O)[O-])cc1
38.5 µM: [4]
inactive: [1] > 100 µM | [2] 31.3 µM | [3] > 100 µM | [5] 41.9 µM | [6] 83.9 µM | [7] 17.5 µM | [8] 92.5 µM | [9] > 100 µM | [10] 2.28 µM | [12] > 100 µM | [13] > 100 µM | [14] > 100 µM | [15] > 100 µM | [16] > 100 µM | [17] 60.3 µM | [18] > 100 µM | [19] 84.1 µM | [20] 45.1 µM | [21] 37.1 µM | [22] > 100 µM | [24] 71.9 µM | [25] 36.8 µM | [26] 45.8 µM | [27] 52 µM | [29] 71.8 µM | [30] > 100 µM | [31] > 100 µM | [32] 18.3 µM | [33] 3.46 µM | [35] > 100 µM | [36] 60.3 µM | [37] 28.6 µM | [38] > 100 µM | [39] 35.9 µM | [40] > 100 µM | [41] 75.7 µM | [42] 36 µM | [44] 80.9 µM | [45] > 100 µM | [46] > 100 µM | [48] 4.8 µM | [49] > 100 µM | [50] > 100 µM | [52] > 100 µM | [53] 47.3 µM | [54] 50.1 µM | [55] 3.4 µM | [57] 47.9 µM | [58] 73.8 µM

CC(C)=CC(=O)CC(=O)C(=O)NCCNC(=O)C(=O)CC(=O)C=C(C)C
> 50 µM: [4]
inactive: [1] > 50 µM | [3] > 50 µM | [5] > 50 µM | [6] > 50 µM | [7] > 50 µM | [8] > 50 µM | [9] > 50 µM | [10] > 50 µM | [11] > 50 µM | [12] > 50 µM | [13] > 50 µM | [14] > 50 µM | [15] > 50 µM | [16] > 50 µM | [17] > 50 µM | [18] > 50 µM | [19] > 50 µM | [20] > 50 µM | [21] > 50 µM | [22] > 50 µM | [23] > 50 µM | [24] > 50 µM | [26] > 50 µM | [30] > 50 µM | [31] > 50 µM | [33] > 50 µM | [34] > 50 µM | [35] > 50 µM | [36] > 50 µM | [37] > 50 µM | [38] > 50 µM | [39] > 50 µM | [40] > 50 µM | [41] > 50 µM | [43] > 50 µM | [44] > 50 µM | [45] > 50 µM | [46] > 50 µM | [47] > 50 µM | [48] > 50 µM | [49] > 50 µM | [50] > 50 µM | [51] > 50 µM | [52] > 50 µM | [53] > 50 µM | [54] > 50 µM | [55] > 50 µM | [56] > 50 µM | [57] > 50 µM | [58] > 50 µM

CC/N=C(/C#N)NCC
inactive: [1] > 100 µM | [2] 75.2 µM | [3] 63 µM | [5] > 100 µM | [6] > 100 µM | [7] 37.6 µM | [8] > 100 µM | [9] > 100 µM | [10] > 100 µM | [12] > 100 µM | [13] > 100 µM | [14] > 100 µM | [15] > 100 µM | [16] > 100 µM | [17] 44.5 µM | [18] > 100 µM | [19] > 100 µM | [20] > 100 µM | [21] > 100 µM | [22] > 100 µM | [23] > 100 µM | [24] > 100 µM | [25] > 100 µM | [26] > 100 µM | [27] > 100 µM | [28] > 100 µM | [29] > 100 µM | [30] 18.7 µM | [31] > 100 µM | [32] > 100 µM | [33] > 100 µM | [34] > 100 µM | [35] > 100 µM | [36] 55.3 µM | [37] 30.4 µM | [38] > 100 µM | [39] > 100 µM | [40] > 100 µM | [41] > 100 µM | [42] > 100 µM | [43] 96.4 µM | [44] 40.2 µM | [45] > 100 µM | [46] > 100 µM | [47] > 100 µM | [48] > 100 µM | [49] > 100 µM | [50] > 100 µM | [51] > 100 µM | [52] > 100 µM | [53] 99.3 µM | [54] > 100 µM | [55] > 100 µM | [56] > 100 µM | [57] > 100 µM | [58] > 100 µM
46.2 µM: [4]
